Consider four molecules from patent US20220213119A1, “THIENOHETEROCYCLIC DERIVATIVE, PREPARATION METHOD THEREFOR AND MEDICAL USE THEREOF” (Jiangsu Hengrui Medicine Ca, Lid., priority 2019, published 2022).

The target of data set [1] is T1, ERK1 (Homo sapiens, UniProt P27361).
T1 construct: purchased R&D 1879-KS-010
Nature of the data set: ERK1 enzyme activity test (ADP-Glo Kinase Assay). The data set is classed as biochemical. As to conditions: chemiluminescence. The protocol:
(§1) The purpose of this experiment is to detect the inhibitory ability of the compounds on the ERK1 enzyme activity and evaluate the activity of the compounds in vitro according to IC50. The ADP-Glo™ Kinase Assay Kit was used in this experiment. Under the action of enzyme, the substrate was phosphorylated and ADP was produced at the same time. The ADP-Glo Reagent was added to remove unreacted ATP in the reaction system. The kinase detection reagent was used to detect the ADP produced by the reaction. In the presence of the compound, the inhibition rate of the compound was calculated by measuring the signal value.
Enzyme and substrate preparation: ERK1 (1879-KS-010, R&D) and substrate (AS-61777, anaspec) were prepared to be 0.75 ng/μl and 100 μM respectively in the buffer. The enzyme solution and substrate solution were then prepared into a mixed solution at a volume ratio of 2:1 for later use. ATP was diluted to 300 μM with the buffer. The compounds were dissolved in DMSO (dimethyl sulfoxide, Shanghai Titan Scientific Co., Ltd.) to prepare a stock solution with an initial concentration of 20 mM, and then Bravo was used to prepare solutions of the compounds. Finally, a 3 μL of a mixed solution of enzyme and substrate, and 1 μL of different concentrations of the compound (the initial concentration is 50 μM, 4-fold dilution) were added to each well of the 384-well plate, and the plate was incubated at 30° C. for 10 minutes, and finally 1 μL of 300 μM ATP solution was added to each well, and the plate was incubated at 30° C. for 2 hours. Then 5 μL of ADP-Glo was added, and the plate was incubated at 30° C. for 40 minutes. Then 10 μL of Kinase detection buffer was added, and the plate was incubated at 30° C. for 40 minutes. The 384-well plate was taken out and placed in a microplate reader (BMG labtech, PHERAstar FS), and the chemiluminescence was measured by the microplate reader.
(§2) The data were processed and analyzed with Microsoft Excel, Graphpad Prism 5.
On the technique in general: ADP-Glo turns the ADP formed in a reaction into a luminescent signal.

Data set [2] concerns the target T2, ERK2 (Homo sapiens, UniProt P28482).
T2 construct: purchased R&D 1230-KS-010
The data set can be described thus: ERK2 enzyme activity test (ADP-Glo Kinase Assay). The data set is classed as biochemical. As to conditions: chemiluminescence. On the procedure:
as §1, with “ERK2” for “ERK1”
Enzyme and substrate preparation: ERK2 (1230-KS-010, R&D) and substrate (Custom peptides, Gill Biochemical) were prepared to be 0.75 ng/μl and 1500 μM in the buffer (40 mM Tris, 20 mM MgCl2, 0.1 mg/mL BSA, 50 μM DTT). The enzyme solution and substrate solution were then prepared into a mixed solution at a volume ratio of 2:1 for later use. ATP was diluted to 500 μM with the buffer. The compounds were dissolved in DMSO (dimethyl sulfoxide, Shanghai Titan Scientific Co., Ltd.) to prepare a stock solution with an initial concentration of 20 mM, and then Bravo was used to prepare solutions of the compounds. Finally, a 3 μL of a mixed solution of enzyme and substrate, and 1 μL of different concentrations of the compound (the initial concentration is 50 μM, 4-fold dilution) were added to each well of the 384-well plate, and the plate was incubated at 30° C. for 10 minutes, and finally 1 μL of 500 μM ATP solution was added to each well, and the plate was incubated at 30° C. for 2 hours. Then 5 μL of ADP-Glo was added, and the plate was incubated at 30° C. for 40 minutes. Then 10 μL of Kinase detection buffer was added, and the plate was incubated at 30° C. for 40 minutes. The 384-well plate was taken out and placed in a microplate reader (BMG labtech, PHERAstar FS), and the chemiluminescence was measured by the microplate reader.
as §2

For data set [3], the system named is Colo205 cells. The data set can be described thus: In vitro proliferation inhibition test on Colo205 tumor cells (CellTiter-Glo). As to conditions: Homo sapiens, COLO 205, 72 h; Colo205 cell proliferation, 3 days of culture, CTG. The data set is classed as cell-based. On the procedure: The purpose of this experiment is to test the inhibitory activity of the compounds on the proliferation of Colo205 cells (CCL-222, ATCC) in vitro. The cells were treated with different concentrations of compounds in vitro. After 3 days of culture, the cell proliferation was detected using CTG (CellTiter-Glo® Luminescent Cell Viability Assay, Promega, catalog number: G7573) reagent. The in vitro activity of the compounds was evaluated according to the IC50 value.
In the following, taking the in vitro proliferation inhibition test method of Colo205 cells as an example, the method in the present disclosure for testing the in vitro proliferation inhibitory activity of the compounds of the present disclosure is described. This method is also applicable to, but not limited to, the in vitro proliferation inhibitory activity test on other tumor cells.
Colo205 cells were digested, centrifuged and then resuspended. The single cell suspension was mixed well, and the density of viable cells was adjusted to 5.0×10^4 cells/ml with cell culture medium (RPMI1640+2% FBS), and 95 μl/well was added to a 96-well cell culture plate. Only 100 μl medium was added to the peripheral wells of the 96-well plate. The culture plate was incubated in an incubator for 24 hours (37° C., 5% CO2).
The compound was dissolved in DMSO (dimethyl sulfoxide, Shanghai Titan Scientific Co., Ltd.) and prepared into a stock solution with an initial concentration of 20 mM. The initial concentration of the small molecule compound is 2 mM, and then 4-fold diluted into to 9 points, and the tenth point is DMSO. Another 96-well plate was taken, 90 μl of cell culture medium (RPMI1640+2% FBS) was added to each well, then 10 μl of different concentrations of the test sample was added to each well, the mixture was mixed well, and then 5 μl of different concentrations of the test sample was added to the cell culture plate, and each sample has two duplicate holes. The culture plate was incubated in the incubator for 3 days (37° C., 5% CO2). The 96-well cell culture plate was taken out, 50 μl CTG solution was added to each well, and the plate was incubated for 10 minutes at room temperature. In a microplate reader (BMG labtech, PHERAstar FS), chemiluminescence was measured with the microplate reader.
as §2
(ATP-based viability assays read luminescence as a measure of living cells.)

A short description of data set [4]: Pharmacokinetics assay in mice. The format is in vivo. As to conditions: mouse, po, C57 mice (female), intragastric, 2 mg/kg, plasma; for Vd/F: read-out: Apparent distribution volume Vz/F; for AUC: read-out: Area under curve AUC; for CL/F: read-out: Clearance CLz/F; for half-life: read-out: Half Life T1/2 (converted); for Cmax: read-out: Plasma Concentration Cmax; for MRT: read-out: Residence Time MRT. The protocol:
Mice were used as the test animal. The drug concentration in plasma at different time points was determined by LC/MS/MS method after administration of compound 3-P2, compound 4-P2, compound 9-P2, compound 10-P2, compound 12 and compound 15. The pharmacokinetic behavior of the compounds of the present disclosure in mice was studied, and the pharmacokinetic characteristics were evaluated.
54 of C57 mice (female) were equally divided into 6 groups, which were purchased from Shanghai Jiesijie Laboratory Animal Co., Ltd., with the animal production license number: SOCK (Shanghai) 2013-0006.
A certain amount of compound was weighted, followed by the addition of 5% volume of DMSO and 5% Tween 80 to dissolve it, then followed by the addition of 90% normal saline to prepare a colorless and clear solution of 0.1 mg/mL.
After an overnight fast, C57 mice were intragastrically administered the test compound at an administration dose of 2 mg/kg and an administration volume of 0.2 ml/10 g.
The mice were intragastrically administered the test compounds. 0.1mL of blood was taken before the administration and at 0.25, 0.5, 1.0, 2.0, 4.0, 6.0, 8.0, 11.0, 24.0 hours after the administration. The blood was placed in a heparinized test tube, and centrifuged at 3500 rpm for 10 minutes. The plasma was separated and stored at −20° C.
The content of the test compound in the plasma of mice after […] administration of the test compound at different concentrations was determined: 25 μl of mouse plasma at each time point after the administration was taken, followed by the addition of 50 μl of the internal standard camptothecin solution (100 ng/mL) and 200 μl of acetonitrile. The resulting solution was vortex-mixed for 5 minutes, and centrifuged for 10 minutes (4000 rpm). 4μl of the supernatant was taken from the plasma samples for LC/MS/MS analysis.

The IC50 is the concentration that inhibits the measured activity by half. Low values mean higher potency, high ones lower potency. A word on the AUC: it is concentration integrated over time. For orientation: MRT means a mean duration of stay, worked out from the concentration-time curve.

T2 sequence (P28482 whole entry): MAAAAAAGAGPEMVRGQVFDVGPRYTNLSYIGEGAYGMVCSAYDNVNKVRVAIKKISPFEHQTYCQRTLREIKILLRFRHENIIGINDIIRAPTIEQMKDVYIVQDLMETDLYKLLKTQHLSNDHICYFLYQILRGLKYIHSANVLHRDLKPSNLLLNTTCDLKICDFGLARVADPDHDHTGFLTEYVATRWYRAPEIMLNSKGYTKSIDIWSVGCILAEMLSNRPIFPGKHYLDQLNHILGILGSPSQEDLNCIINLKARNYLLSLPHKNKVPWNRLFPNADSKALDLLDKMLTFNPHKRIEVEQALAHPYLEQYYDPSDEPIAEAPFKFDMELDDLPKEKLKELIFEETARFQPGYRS
T1 sequence (P27361 whole entry): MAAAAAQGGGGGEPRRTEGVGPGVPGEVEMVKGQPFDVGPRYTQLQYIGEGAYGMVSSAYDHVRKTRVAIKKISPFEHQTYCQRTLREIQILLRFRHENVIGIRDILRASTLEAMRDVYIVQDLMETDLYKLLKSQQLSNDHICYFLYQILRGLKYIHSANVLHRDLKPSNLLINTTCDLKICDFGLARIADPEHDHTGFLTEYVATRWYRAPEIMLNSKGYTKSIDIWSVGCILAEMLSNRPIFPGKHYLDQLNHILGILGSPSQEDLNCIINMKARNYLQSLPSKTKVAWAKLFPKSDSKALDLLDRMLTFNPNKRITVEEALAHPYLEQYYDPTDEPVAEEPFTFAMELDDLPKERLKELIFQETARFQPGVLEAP

Molecule `COc1cc(F)cc([C@@H](CO)NC(=O)[C@@H](C)N2CCc3sc(-c4nc(NC5CCOCC5)ncc4Cl)cc3C2=O)c1` [Example 9-P2, (R)-2-(2-(5-Chloro-2-((tetrahydro-2H-pyran-4-yl)amino)pyrimidin-4-yl)-4-oxo-6,7-dihydrothieno[3,2-c]pyridin-5(4H)-yl)-N-((S)-1-(3-fluoro-5-methoxyphenyl)-2-hydroxyethyl)prop ionamide] displayed an IC50 in data set [1] of 19 nM. For the same molecule, the IC50 in data set [2] was 3 nM. This molecule also showed a concentration for half-maximal inhibition (IC50) in data set [3] of 18 nM. Moreover, in data set [4], the Vd/F was determined as 7.14 L/kg, the AUC is 1820 ng·h/mL, the CL/F was determined as 18.4 mL/min/kg and the half-life is 4.49 h. Also, in data set [4], the Cmax is 1480 ng/mL and the MRT turned out to be 1.85 h.
As to `COc1cc(F)cc([C@@H](CO)NC(=O)[C@@H](C)N2CCc3sc(-c4nc(Nc5ccnn5C)ncc4C)cc3C2=O)c1` [Example 10-P2, (R)-N-((S)-1-(3-Fluoro-5-methoxyphenyl)-2-hydroxyethyl)-2-(2-(5-methyl-2-((1-methyl-1 H-pyrazol-5-yl)amino)pyrimidin-4-yl)-4-oxo-6,7-dihydrothieno[3,2-c]pyridin-5(4H)-yl)pro pionamide], the 50% inhibitory concentration (IC50) in data set [1] came to 32 nM. This molecule came in with an IC50 in data set [2] of 5 nM. Moreover, in data set [3], the half-maximal inhibitory concentration (IC50) was determined as 50 nM. For the same molecule, in data set [4], the Vd/F was found to be 1.99 L/kg, the AUC was 1830 ng·h/mL, the CL/F was 18.2 mL/min/kg and the half-life was 1.26 h. Moreover, in data set [4], the Cmax amounted to 1000 ng/mL and the MRT came to 1.64 h.
Turning to `COc1cc(F)cc([C@@H](CO)NC(=O)[C@@H](C)N2CCc3sc(-c4nc(N[C@@H](C)CO)ncc4Cl)cc3C2=O)c1` [Example 12, (R)-2-(2-(5-Chloro-2-(((S)-1-hydroxypropan-2-yl)amino)pyrimidin-4-yl)-4-oxo-6,7-dihydrothieno[3,2-c]pyridin-5(4H)-yl)-N-((S)-1-(3-fluoro-5-methoxyphenyl)-2-hydroxyethyl)prop ionamide], the IC50 in data set [1] was found to be 24 nM. Besides, the IC50 in data set [2] is 2 nM. The molecule further gave an IC50 in data set [3] of 5 nM. Further, in data set [4], the Vd/F came out at 4.77 L/kg, the AUC is 1600 ng·h/mL, the CL/F worked out at 20.8 mL/min/kg and the half-life was 2.65 h. Also, in data set [4], the Cmax is 1480 ng/mL and the MRT is 1.05 h.
As for `COc1cc(F)cc([C@@H](CO)NC(=O)[C@@H](C)N2CCc3sc(-c4ccnc(Nc5ccnn5C)n4)cc3C2=O)c1` [Example 15, (R)-N-((S)-1-(3-Fluoro-5-methoxyphenyl)-2-hydroxyethyl)-2-(2-(2-((1-methyl-1H-pyrazol-5-yl)amino)pyrimidin-4-yl)-4-oxo-6,7-dihydrothieno[3,2-c]pyridin-5(4H)-yl)propionamide], the IC50 in data set [1] was determined as 4 nM. The IC50 in data set [2] was 3 nM. In data set [3], this molecule showed an IC50 of 49 nM. In data set [4], the Vd/F amounted to 1.76 L/kg, the AUC was 1830 ng·h/mL, the CL/F is 18.2 mL/min/kg and the half-life was 1.11 h. Also, in data set [4], the Cmax was found to be 1070 ng/mL and the MRT amounted to 1.85 h.
